How the values were obtained:
[1] = test system: SLC7A11 knock-out LU99 cells; experiment: CellTiter-Glo cell viability, SLC7A11 knock-out LU99 cells vs LacZ control; type: cell-based, human
Description: (§1) Cell viability was assayed using a modified manufacturer's protocol for CellTiter-Glo® (Promega #G7573). Cells were seeded at a density of 2000 cells per well in a 96 well black, clear bottom plate (Corning #89091-012) in 100 uL total media per well. The following day different concentrations of compounds at various doses were printed in triplicate in a random well format using the Tecan D300e Digital Dispenser. After 72 hours, 60 μL of a 1:3 solution of CellTiterGlo reagent in 1×PBS (Corning #01018002) was added per well and allowed to incubate at RT for 10 mins. Luminescence was measured with an integration time of 0.1 s using Envision Microplates Reader (PERKIN ELMER #2105-0010). Biological replicates were averaged and normalized to vehicle control. Dose curves were generated using Graphpad Prism.

NCI-H2122 cells = experiment: Cell viability, NCI-H2122 cells with SLC7A11 knock-out and/or SLC25A45 over-expression; type: cell-based, human; settings: for effect of SLC7A11 knock-out and SLC25A45 over-expression on cell viability under treatment: SLC7A11 knock-out or SLC25A45 over-expression vs wild type
Description: as §1

LU99 cells = experiment: CellTiter-Glo cell viability, LU99 wild type cells; type: cell-based; settings: Homo sapiens, Lu-99, read-out: IC50 (percent viability)
Description: as §1

[2] = test system: LU99 cells with ectopic expression of FAM3B; experiment: CellTiter-Glo cell viability, LU99 cells with ectopic expression of FAM3B; type: cell-based, human
Description: as §1

500 cancer cell lines = experiment: PRISM multiplex cancer cell line viability screen; type: cell-based, human; settings: 5,000 small molecules against 500 cancer cell lines
Description: Parental cell lines were obtained from the Cancer Cell Line Encyclopedia (CCLE) project. PRISM cell line barcoding, pooling, and screening was performed as previously described with several improvements to the original method. First, the lentiviral vector was modified to encode the unique barcode identifier at the end of the puromycin resistance gene. This enables barcodes to be detected using a variant of the mRNA capture and Luminex detection method developed for the L1000 gene expression assay. Second, a set of ten inert barcodes were spiked-in to each well of each plate after cell lysis to control for variation in PCR amplification as detailed below.
Luminex technology produced .Ixb files containing data for each Luminex bead observed during detection. These .Ixb files were processed to compute Median Fluorescence Intensity (MFI) values, calculated as the median of the values obtained for all beads corresponding to a single PRISM barcode. […]
For each cell line on each plate, the distribution of MFI values observed for the DMSO-treated negative controls was compared to that of the positive controls using a robust form of the Strictly Standardized Mean Difference (SSMD*)’. Specifically, SSMD* was calculated as: […]
Cell viability was calculated as the ratio of nMFI to the median of the nMFI from the DMSO-treated negative controls for each cell line on each plate. […]

[3] = test system: multiple solid tumor and hematopoietic cancer types; settings: monotherapy, phase 1 clinical trials; cited from earlier work
[4] = test system: LU99 cells over-expressing SLC25A45; experiment: CellTiter-Glo cell viability, LU99 cells over-expressing SLC25A45; type: cell-based; settings: Homo sapiens, Lu-99, SLC25A45 overexpression
Description: as §1

| Compound | rescue from inhibitor-induced cell killing by knock-out of SLC7A11 [1] | effect of SLC7A11 knock-out and SLC25A45 over-expression on cell viability under treatment (NCI-H2122 cells) | IC50 (LU99 cells) | change in effects on cell death by ectopic FAM3B expression ([2]; ectopic FAM3B vs wild type) | IC50 ([2]; Homo sapiens, Lu-99, ectopic expression of FAM3B) | cell line killing in PRISM screen (500 cancer cell lines) | clinical response [3] | IC50 [4] | sensitivity of cells with combined SLC7A11 knock-out and SLC25A45 over-expression (NCI-H2122 cells; combination of SLC7A11 knock-out and SLC25A45 over-expression) |
| --- | --- | --- | --- | --- | --- | --- | --- | --- | --- |
| O=C(Cc1ccccc1)Nc1nnc(CCSCCc2nnc(NC(=O)Cc3ccccc3)s2)s1 [BPTES, Bis-2-(5-phenylacetamido-1,3,4-thiadiazol-2-yl)ethyl sulfide] | rescued sensitivity | increase cell viability | – | – | – | – | – | – | – |
| O=C(Cc1cccc(OC(F)(F)F)c1)Nc1ccc(CCCCc2nnc(NC(=O)Cc3ccccn3)[se]2)nn1 [Glutaminase IN 1] | rescued sensitivity | increase cell viability | – | – | – | – | – | – | – |
| CC(=O)O[C@H]1C(=O)[C@@]2(C)[C@H]([C@H](OC(=O)c3ccccc3)[C@]3(O)C[C@H](OC(=O)[C@H](O)[C@@H](NC(=O)c4ccccc4)c4ccccc4)C(C)=C1C3(C)C)[C@]1(OC(C)=O)CO[C@@H]1C[C@@H]2O [Paclitaxel] | – | no significant rescue of sensitivity | 2.2 nM | no change | – | – | – | – | – |
| O=C(Cc1cccc(OC(F)(F)F)c1)Nc1ccc(CCCCc2nnc(NC(=O)Cc3ccccn3)s2)nn1 [Telaglenastat] | rescued | increase cell viability | 1.2 nM | – | > 10000 nM | selectively kill cell lines across a broad range of lineages | only occasional responses | 22 nM | almost completely resistant |
| CN(C)c1ccc(C2Nc3ccc4ccccc4c3C3=C2C(=O)CC(C)(C)C3)cc1Br (centres unmarked) [compound 968] | not rescued | no significant rescue of sensitivity | – | – | – | – | – | – | – |

— patent US20230151431A1, “METHODS AND COMPOSITIONS FOR IDENTIFYING AND TREATING GLUTAMINASE INHIBITOR-SENSITIVE CANCERS” (DANA-FARBER CANCER INSTITUTE, INC., priority 2020, published 2023)
